Measured values from patent publication US20230136075A1, “TREATMENT FOR SEPSIS-INDUCED ORGAN DYSFUNCTION” (The Florey Institute of Neuroscience and Mental Health, priority 2020, published 2023).
Read-outs that look alike come from different tables or passages of the source.

Test system: ovine sepsis induced by intravenous infusion of live E. coli
Source text: Using this model, the inventors have investigated the effect of mega dose intravenous vitamin C therapy on various parameters indicative of the progression of sepsis in sheep (Merino ewes, 35-45 kg; 1.5-2.0 years old). Sheep were divided into two groups, a vitamin C (sodium ascorbate) therapy group and a vehicle group as a control. Experimental protocols were approved by the Animal Ethics Committee of the Florey Institute of Neuroscience and Mental Health under guidelines of the National Health and Medical Research Council of Australia.
Preparatory surgical procedures were carried out as described in Lankadeva et al. (2018b). Briefly, two preparatory surgical procedures were performed under general anaesthesia. First, a carotid artery was exteriorised into a skin fold to form a carotid arterial loop to facilitate cannulation for measurement of arterial pressure and heart rate, and for blood sampling. During the same surgical procedure, a flow probe was placed around the pulmonary artery to measure cardiac output. Animals were allowed 3-4 weeks of recovery. Second, a flow probe was implanted around a renal artery to measure renal blood flow, a renal vein was cannulated for blood sampling and fibre optic probes were inserted into the renal cortex, renal medulla (within kidneys) and parietal cortex (brain) to measure tissue perfusion, oxygen tension and temperature.
During the second surgical procedure cannulae were implanted in the carotid artery for arterial pressure measurement and blood sampling and the jugular vein for infusion of fluids, vasopressors, Escherichia coli, sodium ascorbate and blood sampling, and a Foley catheter was inserted into the bladder to collect urine and monitor hourly urine output.
Following three days of recovery from the second surgical procedure, the experimental protocol (see FIG. 1) was initiated in conscious sheep, to avoid the confounding effects of general anaesthesia. Animals daily food and water intake and urine output was measured on a 24-hour basis during the course of the 5-day protocol.
First, a 24-hour baseline period was commenced, which included measurement of systemic haemodynamics, renal and brain perfusion and oxygenation, arterial, central venous and renal venous blood gases and lactate, and urine output. Arterial blood and urine samples were collected at set times during the experimental period.
After establishment of the 24-hour baseline period, gram-negative sepsis was induced by intravenous infusion of live E. coli (isolated from a patient with sepsis at Austin Health) as described in Lankadeva et al. (2018b), administered as a loading (bolus) infusion of 2.8×10^9 colony-forming units (CFU) over 30-minutes followed by a continuous infusion of 1.26×10^9 CFU/h for 30.5 hours. No prophylactic antibiotics, sedative or analgesic agents were administered during this protocol. The description in the following paragraphs is with reference to the protocol as shown schematically in FIG. 1.
At 23 hours of sepsis, when sheep had fulfilled the clinical criteria for sepsis (i.e. established hypotension, tachycardia, fever, lung injury, tachypnoea, hyperlactatemia and stage 1-2 acute kidney injury) animals were resuscitated with 30 mL/kg balanced crystalloid sodium lactate (Hartmann's solution infused at approximately 2500 ml/hr) for 30 mins, from 23-23.5 hours of sepsis.
A blocked randomization design was used to allocate sheep to treatment with sodium ascorbate or vehicle.

[1] = sodium ascorbate infusion, 24-31 hr of sepsis
[2] = sodium ascorbate infusion, 24-31 hr of sepsis, maintained for the following 2 days

O=C1O[C@H]([C@@H](O)CO)C([O-])=C1O.[Na+] [sodium ascorbate]
clinical state of septic sheep (after infusion of sodium ascorbate for 3 hours, 0.5 g/kg bolus then 0.5 g/kg/hr iv, n=5): dramatically improved | renal histology: acute tubular necrosis or interstitial fibrosis in renal cortex, corticomedullary junction or medulla (at 48 hours of recovery): no acute tubular necrosis or interstitial fibrosis | dose of norepinephrine required to maintain mean arterial pressure (by 4 hours of sodium ascorbate infusion, n=5): not required in four of five sheep | body temperature (during sodium ascorbate therapy, 24-31 hr of sepsis, septic fever 41.4±0.2): ~39 °C | arterial blood potassium (hypokalemia) (infusion of sodium ascorbate): 3.14 ± 0.16 mmol/L | arterial blood sodium (hypernatremia) (infusion of sodium ascorbate): 153.6 ± 1.7 mmol/L | ischemia and hypoxia in the brain (sodium ascorbate 3.75 g/kg intravenous): a reversal of ischemia and hypoxia in the brain | arterial blood pH [1]: no effects | cardiac output [1]: significant, progressive decreases | creatinine clearance [1]: significantly increased | fraction excretion of potassium [1]: did not alter | fractional excretion of sodium [1]: significantly increased | heart rate [1]: significant, progressive decreases | partial pressure of carbon dioxide [1]: no effects | plasma creatinine [1]: corrected the increased plasma creatinine to below baseline levels | renal blood flow [1]: decreased toward healthy levels | renal cortical tissue PO2 [1]: Neither fluid bolus therapy, sodium ascorbate, nor norepinephrine had significant effects | renal vascular conductance [1]: decreased toward healthy levels | level of peripheral vasoconstriction (sodium ascorbate infusion, 24-31 hr of sepsis, despite reduced norepinephrine dose): increased | renal medullary PO2 [2]: increased further throughout the infusion | renal medullary perfusion [2]: improved toward preseptic levels | arterial lactate (sodium ascorbate infusion, 2.0±0.2 mmol/L at 23 hours of sepsis): significant, progressive reduction | arterial PO2 (sodium ascorbate infusion, 80±3 at 23 hours of sepsis): 96.5±3.4 mm Hg | increase in plasma aspartate aminotransferase during sepsis (sodium ascorbate treatment): significantly reduced | increase in plasma bilirubin during sepsis (sodium ascorbate treatment): significantly reduced | urine flow (the 2 days following sodium ascorbate infusion): remained at normal baseline levels | urine flow (within 30 minutes of sodium ascorbate infusion, remained high throughout the infusion): greater than 10 mL/kg/hr
